No end group written: not given here.
Tests used:
Assay in all cases: biochemical
DRB3*0101 = DRB3*0101 (Homo sapiens, UniProt P01903+P79483); type: binding
DR7 (DRB1*0701) = DR7 (DRB1*0701) (Homo sapiens, UniProt P01903+P01911, A100R/A102G/A103Q/D57E/D86V/E43K/F76Y/K127E/L162R/M171V/P40G/Q125H/Q99D/R33Q/R42Y/R54Q/S133A/S66F/T210M/V115G/Y107V/Y59L/Y89S); type: binding
DRB1*1501 = DRB1*1501 (Homo sapiens, UniProt P01903+P01911); type: binding
DRB5*0101 = DRB5*0101 (Homo sapiens, UniProt P01903+Q30154); conditions: Binding affinity DRB5 *0101
DRB1*0901 = DRB1*0901 (Homo sapiens, UniProt P01903+P01911, A100R/A103E/D57H/D86V/F55Y/F60I/F76Y/I96F/K127E/L162R/M171V/P40D/Q125H/Q99R/R33Q/R42F/S133A/S66N/T210M/V115G/W38K/Y107V/Y59G/Y89S); type: binding
DRB1*1302 = DRB1*1302 (Homo sapiens, UniProt P01903+P01911, A100E/A169T/K41T/L162R/M171V/P40S/Q125H/Q178H/Q39Y/Q99D/R42S/S66N/T262R/V115G/W38E/Y61H); type: binding
Sequence of DRB1*1302 (P01903 26-254 limits assumed, other chains not shown): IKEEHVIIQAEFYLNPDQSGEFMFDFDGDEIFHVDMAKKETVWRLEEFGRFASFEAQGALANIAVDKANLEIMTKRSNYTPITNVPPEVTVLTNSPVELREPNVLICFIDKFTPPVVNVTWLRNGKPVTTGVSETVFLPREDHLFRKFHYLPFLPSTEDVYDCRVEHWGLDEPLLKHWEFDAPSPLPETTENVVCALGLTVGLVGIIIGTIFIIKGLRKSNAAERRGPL

DRB1*0405 = DRB1*0405 (Homo sapiens, UniProt P01903+P01911, A100R/A169T/D86S/F76Y/I96L/K127E/L162R/M171V/N62H/P40V/Q125Y/R42H/S133A/S149N/S66Y/V115G/V209L/W38E); type: binding
DR1 (DRB1*0101) = DR1 (DRB1*0101) (Homo sapiens, UniProt P01903+P01911, A100R/D57E/F55L/F60I/F76Y/I96L/L162R/M171V/P40L/Q125E/R42F/V115G/Y59C); type: binding
DRB1*0301 = DRB1*0301 (Homo sapiens, UniProt P01903+P01911, A100K/A102G/A103R/A169T/F55Y/I96L/K41T/L162R/M171V/P40S/Q125H/Q178H/Q39Y/R42S/S66N/T106N/T262R/W38E/Y61H); type: binding
Sequence of DRB1*0301 (P01903 26-254 limits assumed, other chains not shown): as above

DRB1*0802 = DRB1*0802 (Homo sapiens, UniProt P01903+P01911, A100R/A103L/A169T/F76Y/H45Y/I96F/K41T/L162R/M171V/P40S/Q125H/Q178H/Q39Y/Q99D/R218S/R42G/S66Y/V115G/W38E); type: binding
DR4w4 (DRB1*0401) = DR4w4 (DRB1*0401) (Homo sapiens, UniProt P01903+P01911, A100K/A169T/F76Y/I96L/K127E/L162R/M171V/N62H/P40V/Q125Y/R42H/S133A/S149N/S66Y/V115G/V209L/W38E); type: binding
DRB1*1101 = DRB1*1101 (Homo sapiens, UniProt P01903+P01911, A100R/A169T/A87E/I96F/K41T/L162R/M171V/P40S/Q125H/Q178H/Q39Y/Q99D/R42S/S66Y/T262R/V115G/W38E); conditions: Binding affinity DRB1 *1101
Sequence of DRB1*1101 (P01903 26-254 limits assumed, other chains not shown): as above

DRB4*0101 = DRB4*0101 (Homo sapiens, UniProt P01903+P13762, G164S); type: binding
DRB1*1201 = DRB1*1201 (Homo sapiens, UniProt P01903+P01911, A100R/A169T/D57E/D86V/F55L/H45Y/K41T/L162R/M171V/P40S/Q125H/Q178H/Q39Y/Q99D/R42G/S66L/T262R/V114A/V67L/W38E/Y59H/Y61H/Y89S); type: binding

Row | Compound | IC50 (DRB3*0101) [µM] | IC50 (DR7 (DRB1*0701)) [µM] | IC50 (DRB1*1501) [µM] | IC50 (DRB5*0101) [µM] | IC50 (DRB1*0901) [µM] | IC50 (DRB1*1302) [µM] | IC50 (DRB1*0405) [µM] | IC50 (DR1 (DRB1*0101)) [µM] | IC50 (DRB1*0301) [µM] | IC50 (DRB1*0802) [µM] | IC50 (DR4w4 (DRB1*0401)) [µM] | IC50 (DRB1*1101) [µM] | IC50 (DRB4*0101) [µM] | IC50 (DRB1*1201) [µM]
1 | CC[C@H](C)[C@H](NC(=O)CNC(=O)[C@H](Cc1ccc(O)cc1)NC(=O)[C@H](CC(C)C)NC(=O)[C@H](CO)NC(=O)[C@H](CC(C)C)NC(=O)[C@H](CC(C)C)NC(=O)[C@H](CO)NC(=O)[C@H](CC(C)C)NC(=O)[C@H](CCC(=O)O)NC(=O)[C@H](CO)NC(=O)[C@H](CC(C)C)NC(=O)[C@H](CCC(=O)O)NC(=O)[C@H](CCCNC(=N)N)NC(=O)[C@@H](N)CC(C)C)C(=O)O [Peptide 68.0043] | > 20 |  |  |  |  |  |  |  |  |  |  |  |  | 
2 | CC[C@H](C)[C@H](NC(=O)CNC(=O)[C@H](CCC(N)=O)NC(=O)[C@H](CC(C)C)NC(=O)[C@@H](NC(=O)CNC(=O)[C@H](CC(N)=O)NC(=O)[C@H](CS)NC(=O)[C@@H](NC(=O)[C@H](CC(C)C)NC(=O)[C@@H]1CCCN1C(=O)CNC(=O)CN)C(C)C)C(C)C)C(=O)N[C@H](C(=O)N[C@@H](CO)C(=O)O)[C@@H](C)O [Peptide 68.0079] | > 20 | > 20 | > 20 |  |  |  |  |  |  |  |  |  |  | 
3 | CC[C@H](C)[C@H](NC(=O)[C@H](Cc1c[nH]cn1)NC(=O)[C@H](CCSC)NC(=O)[C@H](CCCCN)NC(=O)[C@@H](NC(=O)[C@H](CCCCN)NC(=O)[C@H](CCC(N)=O)NC(=O)[C@@H](NC(=O)[C@H](CO)NC(=O)[C@H](Cc1ccccc1)NC(=O)[C@H](CC(N)=O)NC(=O)CNC(=O)[C@@H](N)[C@@H](C)O)[C@@H](C)O)C(C)C)C(=O)N[C@@H](Cc1c[nH]cn1)C(=O)N[C@@H](CO)C(=O)O [Peptide 68.0105] | > 20 |  |  |  |  |  |  |  |  |  |  |  |  | 
4 | CC(C)C[C@H](NC(=O)[C@H](CC(=O)O)NC(=O)[C@H](CCCCN)NC(=O)[C@H](Cc1ccccc1)NC(=O)[C@H](C)NC(=O)[C@H](Cc1ccccc1)NC(=O)[C@H](CCC(=O)O)NC(=O)[C@H](Cc1ccccc1)NC(=O)[C@@H](NC(=O)[C@@H](N)CCC(=O)O)C(C)C)C(=O)N[C@@H](Cc1ccccc1)C(=O)N[C@H](C(=O)N[C@H](C(=O)N[C@@H](Cc1ccc(O)cc1)C(=O)N[C@@H](CCCNC(=N)N)C(=O)O)C(C)C)C(C)C [Peptide 1543.35] | > 20 |  |  | > 20 | > 20 |  |  |  |  |  |  |  |  | 
5 | CC[C@H](C)[C@H](NC(=O)[C@H](C)NC(=O)[C@H](CCCCN)NC(=O)[C@H](Cc1c[nH]cn1)NC(=O)[C@H](C)NC(=O)[C@H](CCCCN)NC(=O)[C@H](CO)NC(=O)[C@H](CCCCN)NC(=O)[C@H](CO)NC(=O)[C@@H](NC(=O)[C@H](CC(N)=O)NC(=O)[C@@H](NC(=O)[C@@H]1CCCN1)[C@@H](C)CC)[C@@H](C)CC)C(=O)N[C@@H](CCC(=O)O)C(=O)N[C@@H](CC(C)C)C(=O)O [Peptide 1601.30] | > 20 |  |  |  |  |  |  |  |  |  |  |  |  | 
6 | DYVLDLQPEATDLHC [Peptide 1543.10] |  | > 20 | > 20 | > 20 | > 20 | > 20 | 0.678 | 5.05 | 11 | > 20 | 0.035 | > 20 | 0.069 | 4.88
7 | ETCMVIEPPKLRSQT [Peptide 90.0083] |  | 0.794 | 0.67 | 0.124 | > 20 | > 20 | 2.28 | 0.026 | 0.275 | 4.3 | 1.55 | 4.74 | 0.016 | 0.825
8 | EVHMENESIYCPDSV [Peptide 90.0238] |  | > 20 | 0.516 | > 20 | > 20 | 2.37 | > 20 | 0.634 | 0.41 | > 20 | 5.25 | > 20 | > 20 | > 20

— US9340577B2, “HLA binding motifs and peptides and their uses” (priority 1992, dated 2016)
